Measurements from US10322097B2, “Treatment of subjects with multidrug-resistant cancer” (priority 2015, dated 2019).
pIC50: −log10 of the molar value.

How the values were obtained:
[1] = tested on: A549 (Lung) taxol sensitive cancer cells; test: MTT cytotoxicity assay, A549 taxol sensitive; format: cell-based; settings: Homo sapiens, A549, 72 h, read-out: IC50 A549 (Lung) (Taxol sensitive)
Procedure: (§1) Cell cultures and cytotoxicity assays have been used. Celastrol was dissolved in DMSO at a final concentration of 100 mmol/L and stored at −20° C. Cytotoxicity was assessed using the 3-(4,5-dimethylthiazol-2-yl)-2,5-diphenyltetrazolium bromide assay. 4000 cells from A549 (lung), A2780 (ovary), HCT-8 (colon) and MCF-7 (breast) cancer cells were seeded on 96-well plates per well. After overnight pre-incubation, the cells were exposed to different concentrations of celastrol (0.039-100 μmol/L) or taxol for 3 days. Subsequently, 10 μL of MTT reagents was added to each well and incubated at 37° C. for 4 hours followed by the addition of 100 μL solubilization buffer (10% SDS in 0.01 mol/L HCl) and overnight incubation. Absorbance at 585 nm was determined from each well the next day. The percentage of cell viability was calculated using the following formula: Cell viability (%)=Cells number treated/Cells number DMSO control×100. Data were obtained from three independent experiments.

[2] = tested on: SGC-7901 (Gastric) cisplatin resistant cancer cells; test: MTT cytotoxicity assay, SGC-7901 cisplatin resistant; format: cell-based, human
Procedure: as §1, with “from” for “from A549 (lung),”, “A2780 cisplatin sensitive/resistant ovarian cancer cells or SGC-7901 cisplatin sensitive/resistant gastric” for “A2780 (ovary), HCT-8 (colon) and MCF-7 (breast)”, “or cisplatin” for “or taxol”, “reagents were” for “reagents was”

HEK293 kidney cells = test: MTT cytotoxicity assay, HEK293; format: cell-based; settings: Homo sapiens, HEK293, 72 h, 3 days
Procedure: as §1, with “from HEK293” for “from A549 (lung), A2780 (ovary), HCT-8 (colon)”, “and HEK293/ABCB5 kidney cancer cells or MDA-MB-231 pcDNA and MDA-MB-231/BCRP breast” for “and MCF-7 (breast)”, “celastrol (0.1-10” for “celastrol (0.039-100”, “μmol/L)” for “μmol/L) or taxol”, “reagents were” for “reagents was”

[3] = tested on: HCT116 p53-/- colon cancer cells; test: MTT cytotoxicity assay, HCT116 p53-/-; format: cell-based
Procedure: as §1, with “from HCT116 p53^+/+ or p53^−/− colon cancer cells” for “from A549 (lung), A2780 (ovary), HCT-8 (colon)”, “and DLD-1 Bax-Bak^+/+ or Bax-Bak^−/− colon” for “and MCF-7 (breast)”, “well. […]” for “well. After overnight pre-incubation, the cells were exposed to different concentrations of celastrol (0.039-100 μmol/L) or taxol for 3 days.”, “reagents were” for “reagents was”, “incubation. […]” for “incubation. Absorbance at 585 nm was determined from each well the next day.”

[4] = tested on: DLD-1 Bax-Bak+/+ colon cancer cells; test: MTT cytotoxicity assay, DLD-1 Bax-Bak+/+; format: cell-based; settings: Homo sapiens, DLD-1, 72 h, read-out: IC50 DLD-1 Bax-Bak+/+ colon cancer cells
Procedure: as §1, with “from HCT116 p53^+/+ or p53^−/− colon cancer cells” for “from A549 (lung), A2780 (ovary), HCT-8 (colon)”, “and DLD-1 Bax-Bak^+/+ or Bax-Bak^−/− colon” for “and MCF-7 (breast)”, “well. […]” for “well. After overnight pre-incubation, the cells were exposed to different concentrations of celastrol (0.039-100 μmol/L) or taxol for 3 days.”, “reagents were” for “reagents was”, “incubation. […]” for “incubation. Absorbance at 585 nm was determined from each well the next day.”

[5] = tested on: MCF-7 (Breast) doxorubicin resistant cancer cells; test: MTT cytotoxicity assay, MCF-7 doxorubicin resistant; format: cell-based, human
Procedure: as §1, with “from” for “from A549 (lung), A2780 (ovary), HCT-8 (colon) and”, “MCF-7 doxorubicin sensitive/resistant breast” for “MCF-7 (breast)”, “cancer cells or CEM doxorubicin sensitive/resistant leukemia” for “cancer”, “or doxorubicin” for “or taxol”, “reagents were” for “reagents was”

[6] = tested on: SGC-7901 (Gastric) cisplatin sensitive cancer cells; test: MTT cytotoxicity assay, SGC-7901 cisplatin sensitive; format: cell-based, human; settings: Homo sapiens, SGC-7901, 72 h, read-out: IC50 SGC-7901 (Gastric) (Cisplatin sensitive)
Procedure: as §1, with “from” for “from A549 (lung),”, “A2780 cisplatin sensitive/resistant ovarian cancer cells or SGC-7901 cisplatin sensitive/resistant gastric” for “A2780 (ovary), HCT-8 (colon) and MCF-7 (breast)”, “or cisplatin” for “or taxol”, “reagents were” for “reagents was”

[7] = tested on: DLD-1 Bax-Bak-/- colon cancer cells; test: MTT cytotoxicity assay, DLD-1 Bax-Bak-/-; format: cell-based
Procedure: as §1, with “from HCT116 p53^+/+ or p53^−/− colon cancer cells” for “from A549 (lung), A2780 (ovary), HCT-8 (colon)”, “and DLD-1 Bax-Bak^+/+ or Bax-Bak^−/− colon” for “and MCF-7 (breast)”, “well. […]” for “well. After overnight pre-incubation, the cells were exposed to different concentrations of celastrol (0.039-100 μmol/L) or taxol for 3 days.”, “reagents were” for “reagents was”, “incubation. […]” for “incubation. Absorbance at 585 nm was determined from each well the next day.”

[8] = tested on: A2780 (Ovary) cisplatin sensitive cancer cells; test: MTT cytotoxicity assay, A2780 cisplatin sensitive; format: cell-based, human; settings: Homo sapiens, A2780, 72 h, read-out: IC50 A2780 (Ovary) (Cisplatin sensitive)
Procedure: as §1, with “from” for “from A549 (lung),”, “A2780 cisplatin sensitive/resistant ovarian cancer cells or SGC-7901 cisplatin sensitive/resistant gastric” for “A2780 (ovary), HCT-8 (colon) and MCF-7 (breast)”, “or cisplatin” for “or taxol”, “reagents were” for “reagents was”

[9] = tested on: MDA-MB-231 pcDNA breast cancer cells; test: MTT cytotoxicity assay, MDA-MB-231 pcDNA; format: cell-based; settings: Homo sapiens, MDA-MB-231, 72 h, 3 days
Procedure: as §1, with “from HEK293” for “from A549 (lung), A2780 (ovary), HCT-8 (colon)”, “and HEK293/ABCB5 kidney cancer cells or MDA-MB-231 pcDNA and MDA-MB-231/BCRP breast” for “and MCF-7 (breast)”, “celastrol (0.1-10” for “celastrol (0.039-100”, “μmol/L)” for “μmol/L) or taxol”, “reagents were” for “reagents was”

`CC1=C(O)C(=O)C=C2C1=CC=C1[C@@]2(C)CC[C@@]2(C)[C@@H]3C[C@](C)(C(=O)O)CC[C@]3(C)CC[C@]12C` [Celastrol, celastrol] was tested. Which pIC50 [1] did it give?
Its pIC50 is 5.62.

What about the pIC50 ([2]; Homo sapiens, SGC-7901, 72 h, read-out: IC50 SGC-7901 (Gastric) (Cisplatin resistant)) of the same compound?
The pIC50 was 5.76.

And the “Resistant Factor” value ([2]; SGC-7901 cisplatin resistant versus cisplatin sensitive)?
Its value is 0.88.

And the pIC50 (HEK293 kidney cells)?
Its pIC50 is 5.51.

And the pIC50 ([3]; Homo sapiens, HCT-116, 72 h, read-out: IC50 HCT116 p53-/- colon cancer cells)?
Its pIC50 is 6.32.

What about the “Resistant Factor” value ([3]; IC50 HCT116 p53-/- divided by IC50 HCT116 p53+/+) of the same compound?
Its value is 0.58.

And the pIC50 [4]?
Its pIC50 is 6.24.

What about the pIC50 ([5]; Homo sapiens, MCF7, 72 h, read-out: IC50 MCF-7 (Breast) (Doxorubicin resistant)) of the same compound?
Its pIC50 is 6.02.

What about the “Resistant Factor” value ([5]; MCF-7 doxorubicin resistant versus doxorubicin sensitive) of the same compound?
The value was 0.84.

What about the pIC50 [6] of the same compound?
Its pIC50 is 5.71.

And the pIC50 ([7]; Homo sapiens, DLD-1, 72 h, read-out: IC50 DLD-1 Bax-Bak-/- colon cancer cells)?
Its pIC50 is 6.74.

What about the “Resistant Factor” value ([7]; IC50 DLD-1 Bax-Bak-/- divided by IC50 DLD-1 Bax-Bak+/+) of the same compound?
The value was 0.32.

What about the pIC50 [8] of the same compound?
Its pIC50 is 6.28.

And the pIC50 [9]?
The pIC50 was 5.32.
